“And” between values parts separate entries of the source, which are not always exact repeats. Equal entries are not always repeated.
Tests used:
Type in all cases: biochemical
Itk [1] = target: T1, Itk (Homo sapiens, UniProt Q08881); test: ITK inhibition assay (UV), standard coupled enzyme assay; settings: 100 μM ATP, 100 nM Itk, 25° C.
T1 sequence (Q08881 1-620): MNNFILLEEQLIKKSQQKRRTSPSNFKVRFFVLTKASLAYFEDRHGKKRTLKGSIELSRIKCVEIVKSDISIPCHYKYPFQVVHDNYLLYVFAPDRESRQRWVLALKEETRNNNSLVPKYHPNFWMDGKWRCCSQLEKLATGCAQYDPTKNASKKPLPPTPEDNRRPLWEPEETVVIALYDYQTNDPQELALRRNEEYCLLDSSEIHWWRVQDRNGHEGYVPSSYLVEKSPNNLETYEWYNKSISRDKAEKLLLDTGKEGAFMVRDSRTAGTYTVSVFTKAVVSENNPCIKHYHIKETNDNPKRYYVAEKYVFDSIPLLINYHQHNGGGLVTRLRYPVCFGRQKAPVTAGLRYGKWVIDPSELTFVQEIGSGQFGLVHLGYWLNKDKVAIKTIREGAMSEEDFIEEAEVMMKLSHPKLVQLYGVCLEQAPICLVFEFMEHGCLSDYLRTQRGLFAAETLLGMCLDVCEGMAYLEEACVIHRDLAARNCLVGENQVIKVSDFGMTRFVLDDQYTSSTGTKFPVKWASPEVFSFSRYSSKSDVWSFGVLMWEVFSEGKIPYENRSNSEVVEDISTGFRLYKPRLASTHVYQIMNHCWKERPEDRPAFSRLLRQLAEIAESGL
Description: Assays were carried out in a mixture of 20 mM MOPS (pH 7.0), 10 mM MgCl2, 0.1% BSA, 1 mM DTT, 2.5 mM phosphoenolpyruvate, 300 μM NADH, 30 μg/ml pyruvate kinase and 10 μg/ml lactate dehydrogenase. […]
An assay stock buffer solution was prepared containing all of the reagents listed above, with the exception of ATP and the test compound of interest. […] The plate was preincubated for 10 minutes at 25° C. and the reaction initiated by addition of 5 μl of ATP. Initial reaction rates were determined with a Molecular Devices SpectraMax Plus plate reader over a 10 minute time course. IC50 and Ki data were calculated from non-linear regression analysis using the Prism software package (GraphPad Prism version 3.0cx for Macintosh, GraphPad Software, San Diego Calif., USA).

Itk [2] = target: T1, Itk; test: ITK inhibition assay, radioactive-phosphate incorporation; settings: [γ-33P]ATP, SAM68 peptide, 25° C.
Rlk = target: T2, Rlk (Homo sapiens, UniProt P42681); test: RLK inhibition assay, standard coupled enzyme assay; settings: 100 μM ATP, 40 nM Rlk, 30° C.
T2 sequence (P42681 1-527): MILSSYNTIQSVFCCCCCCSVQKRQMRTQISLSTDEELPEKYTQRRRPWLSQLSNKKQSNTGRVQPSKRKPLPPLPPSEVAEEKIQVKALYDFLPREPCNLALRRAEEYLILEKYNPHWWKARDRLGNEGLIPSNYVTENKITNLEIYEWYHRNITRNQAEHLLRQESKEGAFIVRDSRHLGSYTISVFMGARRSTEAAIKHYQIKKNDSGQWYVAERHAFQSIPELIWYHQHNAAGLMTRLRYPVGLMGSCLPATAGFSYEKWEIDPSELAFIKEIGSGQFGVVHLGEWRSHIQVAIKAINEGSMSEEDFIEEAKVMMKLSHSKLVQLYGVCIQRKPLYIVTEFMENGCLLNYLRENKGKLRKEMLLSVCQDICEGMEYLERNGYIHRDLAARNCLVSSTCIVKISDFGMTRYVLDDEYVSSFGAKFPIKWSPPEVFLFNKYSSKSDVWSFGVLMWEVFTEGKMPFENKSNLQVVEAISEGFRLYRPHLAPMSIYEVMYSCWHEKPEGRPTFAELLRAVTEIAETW
Description: Compounds were screened for their ability to inhibit Rlk using a standard coupled enzyme assay (Fox et al., Protein Sci., (1998) 7, 2249). Assays were carried out in a mixture of 20 mM MOPS (pH 7.0), 10 mM MgCl2, 0.1% BSA and 1 mM DTT. Final substrate concentrations in the assay were 100 μM ATP (Sigma Chemicals) and 10 μM peptide (Poly Glu:Tyr 4:1). Assays were carried out at 30° C. and in the presence of 40 nM Rlk. Final concentrations of the components of the coupled enzyme system were 2.5 mM phosphoenolpyruvate, 300 μM NADH, 30 μg/ml pyruvate kinase and 10 μg/ml lactate dehydrogenase.
An assay stock buffer solution was prepared containing all of the reagents listed above, with the exception of ATP and the test compound of interest. 60 μl of the stock solution was placed in a 96 well plate followed by addition of […] of DMSO stock containing serial dilutions of the test compound (typically starting from a final concentration of 7.5 μM). The plate was preincubated for 10 minutes at 30° C. and the reaction initiated by addition of 5 μl of ATP. Initial reaction rates were determined with a Molecular Devices SpectraMax Plus plate reader over a 10 minute time course. IC50 and Ki data were calculated from non-linear regression analysis using the Prism software package (GraphPad Prism version 3.0cx for Macintosh, GraphPad Software, San Diego Calif., USA).

Btk = Btk (Homo sapiens, UniProt Q06187); test: BTK inhibition assay, radioactive-phosphate incorporation; settings: 50 μM [γ-33P]ATP, 25 nM Btk, 25° C.
Description: Compounds were screened for their ability to inhibit Btk using a radioactive-phosphate incorporation assay at Vertex Pharmaceuticals. Assays were carried out in a mixture of 20 mM MOPS (pH 7.0), 10 mM MgCl2, 0.1% BSA and 1 mM DTT. Final substrate concentrations in the assay were 50 μM [γ-33P]ATP (200mCi 33P ATP/mmol ATP, Amersham Pharmacia Biotech, Amersham, UK/Sigma Chemicals) and 2 μM peptide (SAM68 D332-443). Assays were carried out at 25° C. and in the presence of 25 nM Btk. An assay stock buffer solution was prepared containing all of the reagents listed above, with the exception of the peptide and the test compound of interest. 75 μL of the stock solution was placed in a 96 well plate followed by addition of 2 μL of DMSO stock containing serial dilutions of the test compound (typically starting from a final concentration of 15 μM) in duplicate (final DMSO concentration 2%). The plate was preincubated for 15 minutes at 25° C. and the reaction initiated by addition of 25 μL peptide (final concentration 2 μM). Background counts were determined by the addition of […] 0.2M phosphoric acid+0.01% TWEEN to control wells containing assay stock buffer and DMSO prior to initiation with peptide.
The reaction was stopped after 10 minutes by the addition of […] 0.2M phosphoric acid+0.01% TWEEN. A multiscreen phosphocellulose filter 96-well plate (Millipore, Cat no. MAPHN0B50) was pretreated with 100 μL 0.2M phosphoric acid+0.01% TWEEN 20 prior to the addition of […] of the stopped assay mixture. The plate was washed with 4×200 μL 0.2M phosphoric acid+0.01% TWEEN 20. After drying, 30 μL Optiphase ‘SuperMix’ liquid scintillation cocktail (Perkin Elmer) was added to the well prior to scintillation counting (1450 Microbeta Liquid Scintillation Counter, Wallac).
After removing mean background values for all of the data points, Ki(app) data were calculated from non-linear regression analysis using the Prism software package (GraphPad Prism version 3.0cx for Macintosh, GraphPad Software, San Diego Calif., USA).

Sequence of Btk (Q06187 whole entry, species assumed): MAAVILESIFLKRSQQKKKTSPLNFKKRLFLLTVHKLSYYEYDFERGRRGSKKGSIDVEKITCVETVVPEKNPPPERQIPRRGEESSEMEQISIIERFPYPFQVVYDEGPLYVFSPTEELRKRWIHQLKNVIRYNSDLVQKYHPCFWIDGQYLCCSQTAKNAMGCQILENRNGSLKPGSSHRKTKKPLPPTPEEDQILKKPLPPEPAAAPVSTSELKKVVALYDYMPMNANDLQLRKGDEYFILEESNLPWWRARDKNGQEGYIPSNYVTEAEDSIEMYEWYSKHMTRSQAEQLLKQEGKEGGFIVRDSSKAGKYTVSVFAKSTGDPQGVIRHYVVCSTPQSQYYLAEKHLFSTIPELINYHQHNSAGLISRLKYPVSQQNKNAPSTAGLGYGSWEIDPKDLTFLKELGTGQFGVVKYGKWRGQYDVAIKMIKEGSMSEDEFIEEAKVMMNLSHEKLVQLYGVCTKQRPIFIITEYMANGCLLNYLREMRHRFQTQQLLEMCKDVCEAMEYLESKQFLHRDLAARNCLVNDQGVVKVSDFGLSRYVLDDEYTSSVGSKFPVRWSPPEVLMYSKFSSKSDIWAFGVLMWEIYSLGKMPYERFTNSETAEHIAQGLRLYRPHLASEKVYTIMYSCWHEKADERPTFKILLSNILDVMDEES

Row | SMILES | Ki (Itk [1]) [nM] | Ki (Itk [2]) [nM] | Ki (Rlk) [nM] | Ki (Btk)
1 | CNc1cccc(-c2c[nH]c(=O)c(NC(=O)c3ccc(C(C)(C)C)cc3)c2)n1 [II-7] | 100 to 1000 | 100 to 1000 | > 1000 | 
2 | CNc1cc(-c2c[nH]c(=O)c(NC(=O)c3ccc(C(C)(C)C)cc3)c2)nc(SC)n1 [II-41] | 100 to 1000 | 100 to 1000 | > 1000 | 
3 | CNc1ccc(C)c(-c2c[nH]c(=O)c(NC(=O)c3ccc(C(C)(C)C)cc3)c2)c1 [II-43] |  | 100 to 1000 |  | > 500 nM
4 | CN(C)CCN(C)c1nccc(-c2c[nH]c(=O)c(NC(=O)c3ccc(N4CCCCC4)cc3)c2)n1 [II-61] |  | 100 to 1000 |  | > 500 nM and < 500 nM
5 | CNc1cncc(-c2c[nH]c(=O)c(NC(=O)c3ccc(N4CCCCC4)cc3)c2)n1 [II-114] |  |  | > 1000 | > 500 nM
6 | CC(O)[C@@H](CO)Nc1cccc(-c2c[nH]c(=O)c(NC(=O)c3ccc(N4CCCCC4)cc3)c2)n1 (stereo partly drawn) [II-149] |  | 100 to 1000 | > 1000 | > 500 nM

The next lines start with the values.

Row | Ki (Itk [1]) [nM] | Ki (Itk [2]) [nM] | Ki (Rlk) [nM] | Ki (Btk) | SMILES
7 |  | < 100 |  | < 500 nM | CNCCNc1cccc(-c2c[nH]c(=O)c(NC(=O)c3ccc(N4CCCCC4)cc3)c2)n1 [II-51]
8 |  | < 100 |  | < 500 nM | CN(C)CCNc1nccc(-c2c[nH]c(=O)c(NC(=O)c3ccc(N4CCCCC4)cc3)c2)n1 [II-58]
9 |  | < 100 |  | < 500 nM | CNCCNc1nccc(-c2c[nH]c(=O)c(NC(=O)c3ccc(N4CCCCC4)cc3)c2)n1 [II-63]
10 |  | < 100 | < 1000 | < 500 nM | CNc1nccc(-c2c[nH]c(=O)c(NC(=O)c3ccc(N4CCNCC4)cc3)c2)n1 [II-77]
11 |  | < 100 | < 1000 | < 500 nM | CNc1nccc(-c2c[nH]c(=O)c(NC(=O)c3ccc(N4CCN(C(C)C)CC4)cc3)c2)n1 [II-78]
12 |  | < 100 | < 1000 | < 500 nM | CNc1nccc(-c2c[nH]c(=O)c(NC(=O)c3ccc(N4CCC[C@H]4CN4CCCC4)cc3)c2)n1 [II-80]
13 |  | < 100 | < 1000 | < 500 nM | CC(C)(N)CNc1cccc(-c2c[nH]c(=O)c(NC(=O)c3ccc(N4CCCCC4)cc3)c2)n1 [II-112]
